# The source made the active and inactive calls. The rule behind the calls is not given here.
# Experiments:
# [1] = test system: Mus musculus; assay: (§1) Renal protective activity against adenine and potassium oxonate-induced hyperuricemia Kunming mouse model assessed as reduction in hyperuricemia-induced renal fibrosis by measuring reduction in collagen-1 expression in kidney at 5 to 20 mg/kg, po administered via gavage for 2 weeks by immunoblot analysis; format: functional, organism-based; conditions: dose 5-20 mg/kg
# [2] = test system: Mus musculus; assay: (§2) Nephroprotective activity against adenine and potassium oxonate-induced hyperuricemia Kunming mouse model assessed as appearance of clear tubular structures at 20 mg/kg, po administered via gavage and measured after 21 days by hematoxylin-eosin and Masson trichrome staining based optical microscopic analysis; format: functional, organism-based; conditions: time 21.0 day
# [3] = test system: HK-2; assay: Cytoprotective activity in human HK-2 cells assessed as reduction in uric acid-induced increase in branches and intracellular space by inverted light microscopic analysis; format: functional, cell-based; conditions: dose 12.5-100 µM
# [4] = test system: Mus musculus; assay: Renal protective activity against adenine and potassium oxonate-induced hyperuricemia Kunming mouse model assessed as reduction in renal inflammation by measuring reduction in TLR4 expression at 5 to 20 mg/kg, po administered via gavage for 2 weeks by Western blot analysis; format: functional, organism-based; conditions: dose 5-20 mg/kg
# [5] = test system: Mus musculus; assay: Renal protective activity against po dosed adenine and potassium oxonate-induced hyperuricemia Kunming mouse model assessed as reduction in TGF-beta1 expression in kidney administered via gavage for 2 weeks by immunohistochemical staining based optical microscopic analysis; format: functional, organism-based; conditions: dose 5-20 mg/kg, DDE = dose-dependent effect
# [6] = test system: HK-2; assay: Inhibition of epithelial-mesenchymal transition in human HK-2 cells assessed as downregulation of uric acid-induced collagen-1 protein expression by Western blot analysis; format: functional, cell-based; conditions: dose 12.5-100 µM, DDE = dose-dependent effect
# [7] = test system: Mus musculus; assay: Anti-hyperuricemic activity against adenine and potassium oxonate-induced hyperuricemia Kunming mouse model assessed as reduction in serum creatinine level at 20 mg/kg, po administered via gavage once daily for 2 weeks (reference value: 87.62 +/- 0.67 uM); format: functional
# [8] = test system: Mus musculus; assay: Renal protective activity against po dosed adenine and potassium oxonate-induced hyperuricemia Kunming mouse model assessed as reduction in urate accumulation in kidney administered via gavage for 2 weeks by polarization microscopic analysis; format: functional, organism-based; conditions: dose 5-20 mg/kg, DDE = dose-dependent effect
# [9] = molecular target: T1, Xanthine dehydrogenase/oxidase (Bos taurus, UniProt P80457); assay: Inhibition of bovine XOD assessed as inhibition of uric acid formation using xanthine as substrate preincubated with enzyme for 5 mins followed by substrate addition and measured for 30 mins by microplate reader analysis
# [10] = test system: Mus musculus; assay: Renal protective activity against adenine and potassium oxonate-induced hyperuricemia Kunming mouse model assessed as reduction in renal inflammation by measuring reduction in NF-kappaB expression at 5 to 20 mg/kg, po administered via gavage for 2 weeks by Western blot analysis; format: functional, organism-based; conditions: dose 5-20 mg/kg
# [11] = test system: Mus musculus; assay: Anti-hyperuricemic activity against adenine and potassium oxonate-induced hyperuricemia Kunming mouse model assessed as reduction in serum uric acid level at 10 mg/kg, po administered via gavage once daily for 4 weeks (reference value: 356.15 +/- 3.31 uM); format: functional
# [12] = test system: HK-2; assay: Antiinflammatory activity in hyperuricemic human HK-2 cells assessed as reduction in TNF-alpha level at 12.5 to 100 uM; format: functional, cell-based; conditions: dose 12.5-100 µM
# [13] = test system: Mus musculus; assay: Renal protective activity against adenine and potassium oxonate-induced hyperuricemia Kunming mouse model assessed as reduction in renal inflammation by measuring reduction in IkappaBalpha expression at 5 to 20 mg/kg, po administered via gavage for 2 weeks by Western blot analysis; format: functional, organism-based; conditions: dose 5-20 mg/kg
# [14] = molecular target: T1, Xanthine dehydrogenase/oxidase; assay: Mixed type inhibition of bovine XOD assessed as decrease in Vmax with increase in Km at upto 20 uM using varying levels of xanthine as substrate by Lineweaver-Burk plot analysis; conditions: cattle
# [15] = test system: HK-2; assay: Antiinflammatory activity in hyperuricemic human HK-2 cells assessed as reduction in IL-1beta level at 12.5 to 100 uM; format: functional, cell-based; conditions: dose 12.5-100 µM
# [16] = test system: Mus musculus; assay: Anti-hyperuricemic activity against adenine and potassium oxonate-induced hyperuricemia Kunming mouse model assessed as blood urea nitrogen level at 10 mg/kg, po administered via gavage once daily for 4 weeks (reference value: 15.25 +/- 1.21 mM); format: functional
# [17] = test system: Mus musculus; assay: Renal protective activity against adenine and potassium oxonate-induced hyperuricemia Kunming mouse model assessed as reduction in renal inflammation by measuring reduction in TNF-alpha expression at 5 to 20 mg/kg, po administered via gavage for 2 weeks by Western blot analysis; format: functional, organism-based; conditions: dose 5-20 mg/kg
# [18] = test system: Mus musculus; assay: Anti-hyperuricemic activity against adenine and potassium oxonate-induced hyperuricemia Kunming mouse model assessed as reduction in creatinine level at 20 mg/kg, po administered via gavage once daily for 4 weeks (reference value: 76.87 +/- 0.67 uM); format: functional
# [19] = test system: Mus musculus; assay: as §2, with “reduction in neutrophils infiltrations” for “appearance of clear tubular structures”; format: functional, organism-based; conditions: time 21.0 day
# [20] = Stability in simulated intestinal fluid assessed as parent compound remaining incubated for 4 hrs by HPLC analysis; format: ADME; conditions: read-out: Stability
# [21] = test system: Mus musculus; assay: as §1, with “alpha-SMA” for “collagen-1”; format: functional, organism-based; conditions: dose 5-20 mg/kg
# [22] = test system: Mus musculus; assay: as §2, with “reduction in cytoplasmic vacuolation” for “appearance”, “renal” for “clear”, “epithelial cells” for “structures”; format: functional, organism-based; conditions: time 21.0 day
# [23] = test system: Mus musculus; assay: as §2, with “reduction in connective tissue hyperplasia” for “appearance of clear tubular structures”; format: functional, organism-based; conditions: time 21.0 day
# [24] = test system: Mus musculus; assay: In vivo inhibition of XOD in po dosed adenine and potassium oxonate-induced hyperuricemia Kunming mouse model assessed as reduction in XOD activity in liver administered via gavage once daily for 2 weeks; format: functional, organism-based; conditions: dose 5-20 mg/kg, DDE = dose-dependent effect
# [25] = test system: HK-2; assay: Cytoprotective activity in human HK-2 cells assessed as reduction in uric acid-induced cell remodeling by inverted light microscopic analysis; format: functional, cell-based; conditions: dose 12.5-100 µM
# [26] = Stability in simulated gastric fluid assessed as parent compound remaining incubated for 4 hrs by HPLC analysis; format: ADME; conditions: read-out: Stability
# [27] = test system: Mus musculus; assay: Anti-hyperuricemic activity against adenine and potassium oxonate-induced hyperuricemia Kunming mouse model assessed as reduction in creatinine level at 5 mg/kg, po administered via gavage once daily for 4 weeks (reference value: 76.87 +/- 0.67 uM); format: functional
# [28] = test system: Mus musculus; assay: Renal protective activity against adenine and potassium oxonate-induced hyperuricemia Kunming mouse model assessed as reduction in IL-8 expression in kidney at 5 to 20 mg/kg, po administered via gavage for 2 weeks by ELISA relative to control; format: functional; design: scale not given: the % may be the effect or the level left; conditions: dose 5-20 mg/kg
# [29] = test system: Mus musculus; assay: Anti-hyperuricemic activity against adenine and potassium oxonate-induced hyperuricemia Kunming mouse model assessed as blood urea nitrogen level at 20 mg/kg, po administered via gavage once daily for 4 weeks (reference value: 15.25 +/- 1.21 mM); format: functional
# [30] = test system: Mus musculus; assay: Anti-hyperuricemic activity against adenine and potassium oxonate-induced hyperuricemia Kunming mouse model assessed as blood urea nitrogen level at 20 mg/kg, po administered via gavage once daily for 2 weeks (reference value: 9.88 +/- 1.21 mM); format: functional
# [31] = test system: HK-2; assay: Antiinflammatory activity in hyperuricemic human HK-2 cells assessed as reduction in TGF-beta level at 12.5 to 100 uM; format: functional, cell-based; conditions: dose 12.5-100 µM
# [32] = test system: Mus musculus; assay: Renal protective activity against adenine and potassium oxonate-induced hyperuricemia Kunming mouse model assessed as reduction in IL-1beta expression in kidney at 5 to 20 mg/kg, po administered via gavage for 2 weeks by ELISA relative to control; format: functional; design: scale not given: the % may be the effect or the level left; conditions: dose 5-20 mg/kg
# [33] = test system: Mus musculus; assay: Renal protective activity against adenine and potassium oxonate-induced hyperuricemia Kunming mouse model assessed as reduction in TNF-alpha expression in kidney at 5 to 20 mg/kg, po administered via gavage for 2 weeks by ELISA; format: functional, organism-based; conditions: dose 5-20 mg/kg
# [34] = test system: Mus musculus; assay: Anti-hyperuricemic activity against adenine and potassium oxonate-induced hyperuricemia Kunming mouse model assessed as blood urea nitrogen level at 5 mg/kg, po administered via gavage once daily for 4 weeks (reference value: 15.25 +/- 1.21 mM); format: functional
# [35] = test system: Mus musculus; assay: (§3) Renal protective activity against adenine and potassium oxonate-induced hyperuricemia Kunming mouse model assessed as reduction in extracellular matrix protein deposition by measuring interstitial expansion with collagen accumulation at 5 to 20 mg/kg, po administered via gavage for 2 weeks by Masson trichrome staining based optical microscopic analysis; format: functional, organism-based; conditions: dose 5-20 mg/kg
# [36] = test system: Mus musculus; assay: Anti-hyperuricemic activity against adenine and potassium oxonate-induced hyperuricemia Kunming mouse model assessed as reduction in serum uric acid level at 20 mg/kg, po administered via gavage once daily for 4 weeks (reference value: 356.15 +/- 3.31 uM); format: functional
# [37] = test system: Mus musculus; assay: Anti-hyperuricemic activity against adenine and potassium oxonate-induced hyperuricemia Kunming mouse model assessed as reduction in serum uric acid level at 5 mg/kg, po administered via gavage once daily for 4 weeks (reference value: 356.15 +/- 3.31 uM); format: functional
# [38] = test system: Mus musculus; assay: as §3, with “hyperuricemia-induced renal fibrosis” for “extracellular matrix protein deposition”, “tubular dilation” for “interstitial expansion”, “epithelial atrophy” for “collagen accumulation”; format: functional, organism-based; conditions: dose 5-20 mg/kg
# [39] = test system: Mus musculus; assay: as §2, with “reduction in renal tubule dilation” for “appearance of clear tubular structures”; format: functional, organism-based; conditions: time 21.0 day
# [40] = test system: Mus musculus; assay: as §2, with “reduction in tubular-interstitial lesion development” for “appearance of clear tubular structures”; format: functional, organism-based; conditions: time 21.0 day
# [41] = test system: HK-2; assay: Inhibition of epithelial-mesenchymal transition in human HK-2 cells assessed as downregulation of uric acid-induced alpha-SMA protein expression by Western blot analysis; format: functional, cell-based; conditions: dose 12.5-100 µM, DDE = dose-dependent effect
# [42] = test system: Mus musculus; assay: Anti-hyperuricemic activity against adenine and potassium oxonate-induced hyperuricemia Kunming mouse model assessed as reduction in serum uric acid level at 20 mg/kg, po administered via gavage once daily for 2 weeks (reference value: 318.16 +/- 3.31 uM); format: functional
# [43] = test system: Mus musculus; assay: Anti-hyperuricemic activity against adenine and potassium oxonate-induced hyperuricemia Kunming mouse model assessed as reduction in creatinine level at 10 mg/kg, po administered via gavage once daily for 4 weeks (reference value: 76.87 +/- 0.67 uM); format: functional
# T1 sequence (P80457 whole entry): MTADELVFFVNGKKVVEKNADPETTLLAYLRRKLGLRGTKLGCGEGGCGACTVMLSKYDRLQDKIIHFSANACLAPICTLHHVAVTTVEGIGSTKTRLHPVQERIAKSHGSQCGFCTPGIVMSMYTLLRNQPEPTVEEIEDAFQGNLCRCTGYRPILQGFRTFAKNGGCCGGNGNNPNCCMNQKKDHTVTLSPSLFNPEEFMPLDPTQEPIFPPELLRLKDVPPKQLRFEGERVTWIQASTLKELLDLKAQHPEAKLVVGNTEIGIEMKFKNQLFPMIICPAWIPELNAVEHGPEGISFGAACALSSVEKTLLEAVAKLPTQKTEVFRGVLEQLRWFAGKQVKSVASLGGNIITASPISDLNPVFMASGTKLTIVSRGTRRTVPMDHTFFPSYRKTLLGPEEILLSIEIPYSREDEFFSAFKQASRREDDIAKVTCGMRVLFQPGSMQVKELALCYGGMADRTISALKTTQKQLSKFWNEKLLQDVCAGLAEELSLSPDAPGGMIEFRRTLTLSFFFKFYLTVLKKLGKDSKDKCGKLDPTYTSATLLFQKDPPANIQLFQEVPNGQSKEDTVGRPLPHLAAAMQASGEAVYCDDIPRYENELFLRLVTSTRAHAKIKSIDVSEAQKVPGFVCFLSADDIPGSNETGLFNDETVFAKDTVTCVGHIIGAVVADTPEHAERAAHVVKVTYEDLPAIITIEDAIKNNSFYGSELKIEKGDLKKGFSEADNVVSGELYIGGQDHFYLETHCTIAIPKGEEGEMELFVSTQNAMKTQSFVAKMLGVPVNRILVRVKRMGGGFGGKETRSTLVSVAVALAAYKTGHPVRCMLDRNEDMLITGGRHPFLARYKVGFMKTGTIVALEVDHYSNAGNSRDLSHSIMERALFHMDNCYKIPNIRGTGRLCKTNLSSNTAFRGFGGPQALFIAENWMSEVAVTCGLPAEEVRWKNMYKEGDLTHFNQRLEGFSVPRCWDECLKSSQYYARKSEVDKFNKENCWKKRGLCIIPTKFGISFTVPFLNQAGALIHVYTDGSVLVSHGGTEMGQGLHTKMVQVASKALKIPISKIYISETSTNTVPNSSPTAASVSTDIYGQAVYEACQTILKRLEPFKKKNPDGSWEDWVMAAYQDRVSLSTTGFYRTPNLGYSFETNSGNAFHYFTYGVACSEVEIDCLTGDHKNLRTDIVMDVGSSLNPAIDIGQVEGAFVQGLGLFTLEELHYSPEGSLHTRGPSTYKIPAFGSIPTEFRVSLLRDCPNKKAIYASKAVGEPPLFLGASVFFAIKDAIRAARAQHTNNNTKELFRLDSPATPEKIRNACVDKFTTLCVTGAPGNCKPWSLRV
smiles,measurement,setting,value
CC(=O)OCC1=CC[C@@H]2C(C(=O)Nc3ncco3)=CO[C@@H](O[C@@H]3O[C@H](COC(C)=O)[C@@H](OC(C)=O)[C@H](OC(C)=O)[C@H]3OC(C)=O)[C@H]12,Activity,[1],Active
same,Activity,[2],Active
same,Activity,[3],Active
same,Activity,[4],Active
same,Activity,[5],Dde
same,inhibition,[6],Dde
same,Activity,[7],29.08 µM
same,Activity,[8],Dde
same,IC50,[9],1370 nM
same,Activity,[10],Active
same,Activity,[11],188.16 µM
same,Activity,[12],Active
same,Activity,[13],Active
same,inhibition (INH),[14],Active
same,Activity,[15],Active
same,Activity,[16],8.82 mM
same,Activity,[17],Active
same,Activity,[18],38.81 µM
same,Activity,[19],Active
same,remaining at 4 h,[20],53.3%
same,Activity,[21],Active
same,Activity,[22],Active
same,Activity,[23],Active
same,inhibition,[24],Dde
same,Activity,[25],Active
same,remaining at 4 h,[26],47.6%
same,Activity,[27],54.79 µM
same,Activity,[28],>50%
same,Activity,[29],8.02 mM
same,Activity,[30],5.62 mM
same,Activity,[31],Active
same,Activity,[32],>50%
same,Activity,[33],Active
same,Activity,[34],10.05 mM
same,Activity,[35],Active
same,Activity,[36],182.66 µM
same,Activity,[37],198.27 µM
same,Activity,[38],Active
same,Activity,[39],Active
same,Activity,[40],Active
same,inhibition,[41],Dde
same,Activity,[42],235.87 µM
same,Activity,[43],47.17 µM

# Source: ChEMBL document CHEMBL5120838, “Synthesis and biological evaluation of geniposide derivatives as inhibitors of hyperuricemia, inflammatory and fibrosis” (Eur J Med Chem, 2022)
